Experimental data reported in patent US9440990B2, “1-arylcarbonyl-4-oxy-piperidine compounds useful for the treatment of neurodegenerative diseases” (TAKEDA PHARMACEUTICAL COMPANY LIMITED, priority 2011, dated 2016).

System: APP/PS1 double transgenic mouse
Assay: Y-maze test using APP/PS1 double transgenic mouse
Type: in vivo
Conditions: 10 mg/kg orally once a day, 16 hours after the 13th administration
Experimental: Animals used were 3-month-old female APP/PS1 double transgenic mice (10-15 mice/group). A test compound was suspended in a 0.5% aqueous methylcellulose [133-14255 WAKO] solution (1 mg/mL). The body weight of the mice was measured, and the solution was forcibly administered orally and repeatedly once a day for 14 days. At 16 hours after the 13th administration, spontaneous alternation behavior in Y-maze test was evaluated. Using a particular arm of a Y-shaped test apparatus as the starting point, the frequency of moving to a different arm was counted for 5 min. The first two times of entry were excluded from the total number of entry. In addition, the mice that entered less than 10 times in total were excluded. Movement to an arm different from the arm into which the mouse entered last but one was considered an alternation behavior, and the ratio to the total number of moving was calculated as a spontaneous alternation behavior rate. As comparison subjects, a control group (test compound-non treatment group) and a control group in wild-type mice were used.

In the case of `O=C(c1cccnc1-c1ccncc1)N1CCC(O)(Cc2ccccc2)CC1` [Example 44, (4-benzyl-4-hydroxypiperidin-1-yl) (2,4′-bipyridin-3-yl)methanone], the “Spontaneous alternation behavior rate (%)” value is reported as 71%.

Same assay, conditions: 30 mg/kg orally once a day, 16 hours after the 13th administration

`O=C(c1cccnc1-c1ccncc1)N1CCC(O)(Cc2ccccc2)CC1` [Example 44, (4-benzyl-4-hydroxypiperidin-1-yl) (2,4′-bipyridin-3-yl)methanone] was tested, and the “Spontaneous alternation behavior rate (%)” value was 71%.

System: 24-HC in the brain
Assay: Quantification test of 24-HC in mouse brain after repeated oral administration
Type: in vivo
Conditions: brain 24-HC; female C57BL/6N mice; 10 mg/kg orally once a day for 3 days; 16 hours after the third administration; relative to control group as 100%
Experimental: Animals used were 6-week-old female C57BL/6N mice (3 mice/group). A test compound was suspended in a 0.5% aqueous methylcellulose [133-14255 WAKO] solution (1 mg/mL). The body weight of the mice was measured, and the solution was forcibly administered orally and repeatedly once a day for 3 days. At 16 hours after the third administration, half of the brain was recovered, and the amount of 24-HC was measured.
The wet weight of the brain was measured, and the brain was homogenized with about 4-fold amount (0.5 mL) of saline. This solution was used as a brain extract. 24-HC in the brain extract was extracted with an acetonitrile solution (98% acetonitrile, 1.98% methanol, 0.02% formic acid), and quantified by HPLC. The average value of 24-HC amount was calculated and the results are shown in relative values with the control group as 100%.

Going from `O=C(c1ccccc1-c1ccncn1)N1CCC(O)(Cc2ccccc2)CC1` [Example 14, (4-benzyl-4-hydroxypiperidin-1-yl) (2-(pyrimidin-4-yl)phenyl)methanone] to `O=C(c1cccnc1-c1ccncn1)N1CCC(O)(Cc2ccccc2)CC1` [Example 54, (4-benzyl-4-hydroxypiperidin-1-yl) (2-(pyrimidin-4-yl)pyridin-3-yl)methanone], the “decrease rate (%) at 10 mg/kg” value falls from 67% to 64%.

Going from `O=C(c1cccnc1-c1ccncc1)N1CCC(O)(Cc2ccc(F)cc2F)CC1` [Example 87, 2,4′-bipyridin-3-yl (4-(2,4-difluorobenzyl)-4-hydroxypiperidin-1-yl)methanone] to `O=C(c1cccnc1-c1ccncn1)N1CCC(O)(Cc2ccc(F)cc2F)CC1` [Example 105, (4-(2,4-difluorobenzyl)-4-hydroxypiperidin-1-yl) (2-(pyrimidin-4-yl)pyridin-3-yl)methanone], the “decrease rate (%) at 10 mg/kg” value rises from 37% to 40%.

Going from `O=C(c1cccnc1-c1ccncc1)N1CCC(O)(Cc2ccc(F)cc2)CC1` [Example 67, 2,4′-bipyridin-3-yl (4-(4-fluorobenzyl)-4-hydroxypiperidin-1-yl)methanone] to `N#Cc1ccc(CC2(O)CCN(C(=O)c3cccnc3-c3ccncc3)CC2)cc1` [Example 70, 4-((1-(2,4′-bipyridin-3-ylcarbonyl)-4-hydroxypiperidin-4-yl)methyl)benzonitrile], the “decrease rate (%) at 10 mg/kg” value rises from 43% to 60%.

Compared with `O=C(c1ccc(F)cc1-c1ccncc1)N1CCC(O)(Cc2ccccn2)CC1` [Example 30, (4-fluoro-2-(pyridin-4-yl)phenyl) (4-hydroxy-4-(pyridin-2-ylmethyl)piperidin-1-yl)methanone], `O=C(c1cccnc1-c1ccncn1)N1CCC(O)(Cc2ccc(F)cc2)CC1` [Example 92, (4-(4-fluorobenzyl)-4-hydroxypiperidin-1-yl) (2-(pyrimidin-4-yl)pyridin-3-yl)methanone] is lower in “decrease rate (%) at 10 mg/kg” value: 87% for the first, 60% for the second.

`Cc1nc(-c2ccncn2)c(C(=O)N2CCC(O)(Cc3ccc(F)cc3)CC2)s1` [Example 62, (4-(4-fluorobenzyl)-4-hydroxypiperidin-1-yl) (2-methyl-4-(pyrimidin-4-yl)-1,3-thiazol-5-yl)methanone] was tested, and the “decrease rate (%) at 10 mg/kg” value was 71%.
